Publication PMC8899577, “Targeting the anti-apoptotic Bcl-2 family proteins: machine learning virtual screening and biological evaluation of new small molecules” (Theranostics, 2022)

Columns and labels:
Type in all cases: cell-based, Human
H1299 cells [1] = test: Flow cytometry subG1 peak (PI staining), H1299; settings: 20 µM for 72 h
Method: (§1) Flow cytometric analysis (BD Accuri™ C6, BD Biosciences) was performed to evaluate cell cycle distribution by propidium iodide (PI) staining, and cell viability by using the PI dye exclusion assay as previously reported.
(§2) Figure 5 Analysis of apoptosis induction by IS20 and IS21 in leukemia, melanoma and NSCLC cells. […] (A-F) Reported images are representative of two independent experiments with similar results. HSP72/73 or α-Tubulin are shown as loading and transferring control. (G) Flow cytometric quantification of cells in the subG1 peak of cell cycle distribution by propidium iodide staining in HL60 cell line treated with IS20 or IS21 (20 μM for 24 h) and in M14, H1299 and MDA-MB-231 cell lines treated with IS20 or IS21 (20 μM for 72 h). Data are reported as mean ± SD of three independent experiments. p-values were calculated between control (Ctrl) and treated cells, * p < 0.05. (H) Flow cytometric quantification of cells in the subG1 peak by propidium iodide staining in M14 and H1299 cell lines treated with IS20 or IS21 (20 μM, 72 h) in presence or absence of the pan caspase inhibitor z-VAD (50 μM). p-values were calculated between treated control (Ctrl) cells, # p < 0.01, ## p < 0.001 or between cells treated with IS20 or IS21 alone or in combination with z-VAD, * p < 0.05, ** p < 0.005. (G-H) Data are reported as mean of two (H) or three (G) experiments ± SD.

[2] = test system: HCT116 colon cancer cells; test: Cell viability by MTT, HCT116; settings: 20 µM for 72 h, vs control
Method: The effect of compounds on cell viability was performed by measuring 3-[4,5-dimethylthiazol-2-yl]-2,5-diphenyltetrazolium bromide inner salt (MTT, Sigma-Aldrich) dye absorbance (solid tumor cells) or by quantization of ATP present in metabolically active cells using CellTiter-Glo® Luminescent (Promega, Fitchburg, Wisconsin, USA) (hematologic cells) following manifacturer's protocol. To evaluate the cell colony-forming ability, cell suspension from different samples was seeded into 60-mm Petri dishes. After 10 days, colonies were stained with 2% methylene blue in 95% ethanol and counted (1 colony > 50 cells). The surviving fractions were calculated as the ratio of absolute survival of the treated sample/survival of DMSO-treated control sample.
Figure 4 Analysis of the effect of IS20 and IS21 on cell viability, clonogenic ability and tumor sphere formation in cancer cells. […] (B) Representative images and quantification of clonogenic ability evaluated in M14 and H1299 cells treated with IS20 or IS21 (20 μM for 72 h). […] (C) Quantification of tumor sphere formation of M14 and H1299 cells treated with IS20 or IS21 (20 μM for 72 h). […] (A-C) Data are reported as mean ± SD of three independent experiments. p-values were calculated between control (Ctrl) and treated cells, ** p < 0.001 and *** p < 0.0001.

H1299 cells [3] = test: Tumor sphere formation assay, H1299; settings: 20 µM for 72 h, respect to controls
Method: For tumor sphere assay, cells were recovered after treatment, counted and seeded in 24-well ultralow attachment surface plates at a density of 5 × 10^2 cells/well and cultured as previously described. After 10 days, spheres were photographed and counted. The percentage of spheres normalized to the number of seeded cells was calculated.
Figure 4 Analysis of the effect of IS20 and IS21 on cell viability, clonogenic ability and tumor sphere formation in cancer cells. (A) Analysis of cell viability by MTT assay in M14, H1299, HCT116 and MDA-MB-231 cell lines treated with IS20 or IS21 (20 μM for 72 h). The results are reported as “viability of treated cells/viability of control cells (Ctrl)” × 100. (B) Representative images and quantification of clonogenic ability evaluated in M14 and H1299 cells treated with IS20 or IS21 (20 μM for 72 h). Results are reported as percentage of clonogenicity of treated versus control cells. (C) Quantification of tumor sphere formation of M14 and H1299 cells treated with IS20 or IS21 (20 μM for 72 h). Results are reported as percentage of tumor sphere formation of treated versus control. (A-C) Data are reported as mean ± SD of three independent experiments. p-values were calculated between control (Ctrl) and treated cells, ** p < 0.001 and *** p < 0.0001.

M14 cells = test: Flow cytometry subG1 peak (PI staining), M14; settings: 20 µM for 72 h
Method: as §1, §2

H1299 cells [4] = test: Western blot of LC3B-I/LC3B-II (autophagy), H1299; settings: 72 h, increasing concentration
Method: Western blot analyses of total protein extracts were performed as previously described. Immunodetection was performed using antibodies directed to poly (ADP-ribose) polymerase (PARP; BD Biosciences San Diego, CA, USA), LC3B (Cell Signaling Technology, Danvers, MA), HSP72/73 (Calbiochem, EMD Biosciences, La Jolla, CA), Bcl-2 (SC-509, Santa Cruz Biotechnology Inc, Dallas, TX, USA), Bcl-xL (SC-271121, Santa Cruz Biotechnology Inc), Mcl-1 (SC-12756, Santa Cruz Biotechnology Inc) α-tubulin (Santa Cruz Biotechnology Inc) actin (Sigma-Aldrich, St. Louis, Missouri, USA). Anti-rabbit or anti-mouse immunoglobulin G-horseradish peroxidase-conjugated antibodies (Amersham Biosciences, Freiburg, Germany) were used as secondary antibody. […]
Figure 6 Analysis of autophagosome accumulation in M14 and H1299 cells after treatment with IS20 or IS21. […] Ratio of LC3B-II on LC3B-I levels, after normalization on HSP72/73, Actin or α-Tubulin, is quantified by densitometric analysis. (D) (Upper panels) Representative images and (lower panels) relative quantification of fluorescence microscopic analysis of LC3B puncta positive cells in M14 EGFP-LC3B and H1299 EGFP-LC3B transfected cells, treated with IS20 or IS21 (20 µM for 72h). […] Cells with more than 10 puncta were considered autophagy-positive. p-values were calculated between untreated (Ctrl) and treated cells, * p < 0.05.

| SMILES | subG1 peak of cell cycle distribution, H1299 (H1299 cells [1]) | cell viability HCT116 [2] | decrease of sphere formation capacity, H1299 (H1299 cells [3]) | subG1 peak of cell cycle distribution, M14 (M14 cells) | ratio of LC3B-II on LC3B-I protein levels, H1299 (H1299 cells [4]) |
| --- | --- | --- | --- | --- | --- |
| CCCCOc1ccc(C2/C(=C(\O)c3ccc4c(c3)CC(C)O4)C(=O)C(=O)N2c2nnc(SCc3ccc(Cl)cc3)s2)cc1OCC (stereo not shown) [IS20] | presence of subG1 peak | not significantly perturbed | about 60% | presence of subG1 peak | higher level |
| CCCCCOc1ccc(C2/C(=C(\O)c3ccc4c(c3)CC(C)O4)C(=O)C(=O)N2c2nnc(SCc3ccc(Cl)cc3)s2)cc1OCC (stereo not shown) [IS21] | presence of subG1 peak | not significantly perturbed | about 60% | presence of subG1 peak | higher level |
